Converted amounts (≈) assume the structure as drawn.
How the values were obtained:
Actinomyces turicensis = experiment: MIC of baseline clinical isolates (Example 8); assay type: cell-based; details: Actinomyces turicensis baseline isolates (N′ = 1), central laboratory, mITT
Procedure, shortened: (§1)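 Clinical microbiology is assessed at Day 1 and again whenever the index site undergoes surgery. Bone, adjacent tissue and swabs from deep and superficial locations are sampled, and a parallel set goes to the local site laboratory.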

Anaerococcus murdochii = experiment: MIC of baseline clinical isolates (Example 8); assay type: cell-based; details: Anaerococcus murdochii baseline isolates (N′ = 1), central laboratory, mITT
Procedure, shortened: as §1

Clostridium sphenoides = experiment: MIC of baseline clinical isolates (Example 8); assay type: cell-based; details: Clostridium sphenoides baseline isolates (N′ = 1), central laboratory, mITT
Procedure, shortened: as §1

[1] = tested on: Cutibacterium [Propionibacterium] acnes; experiment: MIC of baseline clinical isolates (Example 8); assay type: cell-based; details: Cutibacterium (Proprionibacterium) acnes baseline isolates (N′ = 3), central laboratory, mITT
Procedure, shortened: as §1

F. magna = experiment: MIC of baseline clinical isolates (Example 8); assay type: cell-based; details: Finegoldia magna baseline isolates (N′ = 4), central laboratory, mITT
Procedure, shortened: as §1

Peptoniphilus gorbachii = experiment: MIC of baseline clinical isolates (Example 8); assay type: cell-based; details: Peptoniphilus gorbachii baseline isolates (N′ = 1), central laboratory, mITT
Procedure, shortened: as §1

[2] = tested on: non-speciated Anaerococcus; experiment: MIC of baseline clinical isolates (Example 8); assay type: cell-based; details: Anaerococcus non-speciated baseline isolates (N′ = 1), central laboratory, mITT
Procedure, shortened: as §1

B. fragilis = experiment: Agar dilution MIC, anaerobes (Example 5); assay type: cell-based; details: Bacteroides fragilis, ATCC25285
[3] = tested on: P. aeruginosa and A. baumannii; experiment: MIC summary, P. aeruginosa and A. baumannii (Example 5); assay type: cell-based; details: all evaluated P. aeruginosa and A. baumannii isolates (Table 4); read-out: MIC values across isolates
Description: Test and Comparator Agents: The test agents were stored at room temperature until assayed. All test agents were suspended and diluted in 100% dimethylsulfoxide (DMSO), and were ultimately tested at a final concentration of 0.06-64 μg/mL. The stock solutions were allowed to stand for at least 1 hr prior to use to auto-sterilize.
TestMedia: Test media were prepared and stored in accordance with guidelines from CLSI (4, 6, 7). […] Neisseria gonorrhoeae were evaluated by agar dilution using agar consisting of GC medium base (BD; Lot No. 4274618) supplemented with 1% IsoVitaleX (BD; Lot No. 5246843).
Broth Microdilution MC Testing (Aerobic Bacteria and Yeast): The broth microdilution assay method employed for the susceptibility testing of aerobic bacteria (excluding N. gonorrhoeae which was evaluated by agar dilution) and yeast essentially followed the procedures described by CLSI (3, 4, 7, 8) and employed automated liquid handlers to conduct serial dilutions and liquid transfers. […]
Plates were stacked 4 high, covered with a lid on the top plate, placed into plastic bags, and incubated at 35° C. for approximately 24-48 hr for all yeast isolates and 16-24 hr for aerobic bacteria. […] MIC endpoints for the test agents and control compounds were read per CLSI criteria (3, 7).

M. abscessus (MABSC) = experiment: MIC against CF isolates (Example 7, Table 18); assay type: cell-based, Mycobacterium abscessus complex; details: Mycobacteroides abscessus
S. epidermidis = experiment: MIC of baseline clinical isolates (Example 8); assay type: cell-based; details: Staphylococcus epidermidis baseline isolates (N′ = 5), central laboratory, mITT
Procedure, shortened: as §1

Staphylococcus arlettae = experiment: MIC of baseline clinical isolates (Example 8); assay type: cell-based; details: Staphylococcus arlettae baseline isolates (N′ = 1), central laboratory, mITT
Procedure, shortened: as §1

[4] = tested on: Staphylococcus haemolyticus; experiment: MIC of baseline clinical isolates (Example 8); assay type: cell-based; details: Staphylococcus haemolyticus baseline isolates (N′ = 1), central laboratory, mITT
Procedure, shortened: as §1

Staphylococcus hominis = experiment: MIC of baseline clinical isolates (Example 8); assay type: cell-based; details: Staphylococcus hominis baseline isolates (N′ = 1), central laboratory, mITT
Procedure, shortened: as §1

[5] = tested on: Staphylococcus lugdunensis; experiment: MIC of baseline clinical isolates (Example 8); assay type: cell-based; details: Staphylococcus lugdunensis baseline isolates (N′ = 3), central laboratory, mITT
Procedure, shortened: as §1

Staphylococcus pasteuri = experiment: MIC of baseline clinical isolates (Example 8); assay type: cell-based; details: Staphylococcus pasteuri baseline isolates (N′ = 1), central laboratory, mITT
Procedure, shortened: as §1

Compound	n (% resistant) (Actinomyces turicensis)	n (% resistant) (Anaerococcus murdochii)	n (% resistant) (Clostridium sphenoides)	n (% resistant) [1]	n (% resistant) (F. magna)	n (% resistant) (Peptoniphilus gorbachii)	n (% resistant) [2]	MIC (B. fragilis) [µg/mL]	MIC [3] [µg/mL]	n (% resistant) (S. epidermidis)	n (% resistant) (Staphylococcus arlettae)	n (% resistant) [4]	n (% resistant) (Staphylococcus hominis)	n (% resistant) [5]	n (% resistant) (Staphylococcus pasteuri)	further results
C[C@@H](O)[C@H]1C(=O)N2C(C(=O)O)=C(S[C@@H]3CN[C@H](C(=O)N(C)C)C3)[C@H](C)[C@H]12 [Meropenem]	0 (0.0) n (%)	0 (0.0) n (%)	0 (0.0) n (%)	0 (0.0) n (%)	0 (0.0) n (%)	0 (0.0) n (%)	0 (0.0) n (%)									MIC (Actinomyces turicensis; Schaalia turicensis): 0.25 µg/mL; MIC (Anaerococcus murdochii): 0.06 µg/mL; MIC (Clostridium sphenoides; Lacrimispora sphenoides): 2 µg/mL; MIC [1]: 0.06 µg/mL; MIC (F. magna): 0.06 µg/mL; MIC (Peptoniphilus gorbachii): 0.06 µg/mL; MIC [2]: 0.25 µg/mL
OCC(S)CS.[Bi] (centres unmarked) [MB-2B, bismuth-2,3-dimercaptopropanol]								8	2 to 16							
CC(S)C(C)S.[Bi] (centres unmarked) [MB-6, bismuth-2,3-butanedithiol]								1	0.5 to 2							MIC (M. abscessus (MABSC); MABSC strain AMT0130-8): 0.0625 µg/mL
NCC[C@H](O)C(=O)N[C@@H]1C[C@H](N)[C@@H](O[C@H]2O[C@H](CN)[C@@H](O)[C@H](O)[C@H]2O)[C@H](O)[C@H]1O[C@H]1O[C@H](CO)[C@@H](O)[C@H](N)[C@H]1O [Amikacin]																MIC (M. abscessus (MABSC); strain AMT0068-40, M abscessus/massiliense complex): 32 µg/mL (≈ 54.6 µM); MIC (M. abscessus (MABSC); strain AMT0119-7, M abscessus/massiliense complex): 32 µg/mL (≈ 54.6 µM)
C[C@H]1COc2c(N3CCN(C)CC3)c(F)cc3c(=O)c(C(=O)O)cn1c23 [Levofloxacin]										2 (40.0) n (%)	0 (0.0) n (%)	1 (100.0) n (%)	1 (100.0) n (%)	0 (0.0) n (%)	0 (0.0) n (%)	MIC (S. epidermidis): 2.52 µg/mL; MIC (Staphylococcus arlettae): 0.5 µg/mL; MIC [4]: 8 µg/mL; MIC (Staphylococcus hominis): 8 µg/mL; MIC [5]: 0.92 µg/mL; MIC (Staphylococcus pasteuri): 0.25 µg/mL
CCC[C@@H]1C[C@@H](C(=O)N[C@@H]([C@H]2O[C@H](SC)[C@H](O)[C@@H](O)[C@H]2O)[C@H](C)Cl)N(C)C1 [CLI]	0 (0.0) n (%)	1 (100.0) n (%)	1 (100.0) n (%)	0 (0.0) n (%)	2 (50.0) n (%)	1 (100.0) n (%)	0 (0.0) n (%)			1 (20.0) n (%)	0 (0.0) n (%)	1 (100.0) n (%)	0 (0.0) n (%)	0 (0.0) n (%)	1 (100.0) n (%)	Mean MIC (Actinomyces turicensis): 0.25 µg/mL; Mean MIC (Anaerococcus murdochii): 8.00 µg/mL; Mean MIC (Clostridium sphenoides): 8.00 µg/mL; Mean MIC [1]: 0.25 µg/mL; Mean MIC (F. magna): 4.38 µg/mL; Mean MIC (Peptoniphilus gorbachii): 8.00 µg/mL; Mean MIC (S. epidermidis): 3.66 µg/mL; Mean MIC (Staphylococcus arlettae): 0.25 µg/mL; Mean MIC [4]: 8.00 µg/mL; Mean MIC (Staphylococcus hominis): 0.12 µg/mL; Mean MIC [5]: 0.03 µg/mL; Mean MIC (Staphylococcus pasteuri): 1.00 µg/mL; Mean MIC [2]: 0.25 µg/mL
